Reference: article PMC6751662, “Pharmacological and functional similarities of the human neuropeptide Y system in C. elegans challenges phylogenetic views on the FLP/NPR system” (Cell Communication and Signaling : CCS, 2019)
Read-outs that look alike come from different tables or passages of the source. Ends that are not written are not given here.

Tests used:
[1] = Solubility of crude peptides in RP-HPLC purification solvents; format: physicochemical; details: for solubility of crude peptide: H2O + 0.1% TFA / acetonitrile + 0.08% TFA (RP-HPLC purification conditions); for solubility of crude peptide at basic pH: 10 mM (NH4)2CO3, pH 8.5, used for purification
Procedure: C-terminally amidated peptides were synthesized in 15 μmol scale by solid-phase peptide synthesis following the Fmoc/tert-butyl strategy (reviewed in [18]) on Rink amide resin using an automated Syro II peptide synthesizer (MultiSynTech). Automated coupling reactions were performed as double couplings using 8 eq Nα-protected amino acid, activated in situ with equimolar amounts of Oxyma and […] in dimethylformamide (DMF) for 30 min. Automated Fmoc deprotection was carried out with 40% (v/v) piperidine in DMF for 3 min and 20% (v/v) piperidine in DMF for 10 min. Reactive side chains of amino acids were protected by tert-butyl (tBu for Tyr, Ser, Asp, Glu, Thr), trityl (Trt for Asn, Gln, His), 2,2,4,6,7-pentamethyldihydrobenzofuran-5-sulfonyl (Pbf for Arg) and tert-butyloxycarbonyl (Boc for Lys). Peptides were cleaved off the resin using trifluoroacetic acid (TFA)/H2O/triisopropylsilane (90/5/5, v/v/v) for 2.5 h at room temperature and precipitated in ice cold diethyl ether. All peptides were purified to > 95% purity by RP-HPLC (Shimadzu) using a Phenomenex Jupiter 10 μm Proteo 90 Å (C12) column. For most peptides, linear gradients of H2O + 0.1% trifluoroacetic acid (TFA) (eluent A) and acetonitrile (ACN) + 0.08% TFA (eluent B) were applied at a flow rate of 10 ml/minute. […] FLP-27, FLP-33, and FLP-34 were solubilized by ultrasonication at 50 °C for 10 min and subsequently purified under standard solvent conditions used pre-heated HPLC systems. […] Peptide identity was verified by matrix-assisted laser desorption/time of flight (MALDI-ToF; Ultraflex III MALDI-ToF/ToF, Bruker Daltonics) mass spectrometry, and peptide purity was evaluated with analytical RP-HPLC.

NPR-1 = target: T1, NPR-1 (Caenorhabditis elegans, UniProt Q18534); assay: cAMP reporter gene assay, Gi/o (inhibition of forskolin-induced cAMP), NPR-1; format: cell-based, C. elegans; set-up: host or cells: HEK293; details: for cAMP, x-fold of forskolin (mean), NPR-1 / Gi (Gs) [x-fold of forskolin], NPR-1, mean: inhibition of cAMP production induced by 1 µM forskolin (set to 1.00), transiently transfected HEK293 cells, mean of at least three independent experiments; for cAMP, x-fold of forskolin (mean), NPR-1 / cAMP assay Gi, NPR-1: lower = higher Gi/o activity; for Emax: HEK293, read-out: Emax ± SEM [%]; for cAMP assay Gi, NPR-1: 4 h, transfected HEK293, CRE-luciferase, mean of >=3 independent experiments
T1 sequence (Q18534 1-457): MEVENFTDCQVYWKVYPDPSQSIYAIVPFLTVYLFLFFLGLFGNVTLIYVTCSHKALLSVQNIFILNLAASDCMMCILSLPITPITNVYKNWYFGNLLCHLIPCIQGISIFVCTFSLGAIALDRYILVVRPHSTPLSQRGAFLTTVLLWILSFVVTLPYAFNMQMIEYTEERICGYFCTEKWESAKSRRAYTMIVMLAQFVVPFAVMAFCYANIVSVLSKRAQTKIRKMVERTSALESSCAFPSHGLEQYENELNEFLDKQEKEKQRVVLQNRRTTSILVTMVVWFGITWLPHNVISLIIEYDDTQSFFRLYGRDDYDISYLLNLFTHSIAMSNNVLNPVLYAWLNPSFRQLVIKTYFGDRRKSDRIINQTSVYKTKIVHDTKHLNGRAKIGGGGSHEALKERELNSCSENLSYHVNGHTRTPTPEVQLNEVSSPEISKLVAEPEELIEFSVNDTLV
Procedure: Activation of Gs and Gi/o was assessed with a cAMP reporter gene assay. HEK293 cells grown to 70–80% confluency in 6-well plates were transiently co-transfected with vectors encoding the receptor and the cAMP reporter gene plasmid pGL4.29 [luc2P/CRE/Hygro] (Promega; 4 μg total, 1:1 ratio) using Metafectene Pro (3 μl/μg DNA; Biontex) following the manufacturer’s instructions. 16 h post transfection, the cells were seeded into white 384-well plates at a density of 20,000 cells/well. On the next day, the medium was removed and the cells were stimulated with 20 μl of peptide solution (or forskolin as positive control) in serum-free DMEM for 4 h. For measuring Gi/o activity, the peptide solutions additionally contained 1 μM forskolin to elevate cellular cAMP levels. After incubation, the luciferase substrate OneGlo in lysis buffer (Promega) was added and the luminescence was measured in a microplate reader Tecan Spark (Tecan). Data were analyzed with GraphPad Prism 5.03 and are shown as fold of basal or fold of forskolin in case of Gαi/o activity.
(§1) For in vitro activation, data is presented as mean ± SEM of at least three independent experiments conducted in technical triplicate. […] For the C. elegans NPRs, we considered the strongest response elicited by any of the peptides downstream of a particular receptor as the receptor’s maximal signal. This may or may not be the biological maximum that can be reached by the ‘true’ endogenous agonist. For the human receptors, the response to the established endogenous agonist reflected the maximal signal.

Y5R = target: T2, Y5R (Homo sapiens, UniProt Q15761); assay: IP accumulation assay, chimeric GαΔ6qi4myr, Y5R; format: cell-based; details: chimeric GαΔ6qi4myr co-transfected, transiently transfected HEK293 cells, mean of at least three independent experiments
T2 construct: expressed in transfected cells; host or cells: HEK293, transient
T2 sequence (Q15761 1-445): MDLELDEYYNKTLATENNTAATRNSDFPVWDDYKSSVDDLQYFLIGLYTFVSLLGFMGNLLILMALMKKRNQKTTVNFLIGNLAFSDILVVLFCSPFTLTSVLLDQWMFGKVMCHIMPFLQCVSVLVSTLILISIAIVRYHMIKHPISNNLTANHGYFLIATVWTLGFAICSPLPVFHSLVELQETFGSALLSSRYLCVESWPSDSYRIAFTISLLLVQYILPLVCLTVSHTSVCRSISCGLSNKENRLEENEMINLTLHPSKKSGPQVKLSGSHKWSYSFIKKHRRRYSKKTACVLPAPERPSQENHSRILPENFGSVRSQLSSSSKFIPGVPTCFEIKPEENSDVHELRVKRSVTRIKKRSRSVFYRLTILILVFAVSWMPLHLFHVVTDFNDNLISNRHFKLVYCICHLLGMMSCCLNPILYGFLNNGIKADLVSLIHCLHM
Procedure: For measuring IP accumulation, HEK293 cells grown to 70–80% confluency in 6-well plates were transiently co-transfected using Metafectene Pro (2.5 μl/μg DNA; Biontex) with plasmids containing receptor and/or mock (empty pcDNA3.1) (for endogenous Gq-coupling) using 4 μg total DNA in a ratio of 3:1 following the manufacturer’s instructions. For testing Gα16- and GαΔ6qi4myr-coupling, plasmids encoding the corresponding Gα protein were co-transfected instead of mock. Gα16 is naturally promiscuous and stimulates the phospholipase C (PLC) pathway leading to IP production, while the exchange of the C-terminal four amino acids of Gαq for the corresponding residues of Gαi1 in the chimeric GαΔ6qi4myr confers the ability to couple to Gi/o protein-preferring receptors but still stimulate PLC, thus specifically redirecting downstream cellular signaling. 16 h post transfection, the cells were seeded into white 384-well plates at a density of 20,000 cells/well. Media was removed 24 h later and the cells were incubated with the indicated concentration of peptides for 1 h in HBSS + 20 mM LiCl. IP accumulation was measured with the HTRF-based IP-One Gq kit (Cisbio) on a microplate reader (Tecan Spark).
as §1

| Substance | cAMP, x-fold of forskolin (mean), NPR-1 (NPR-1; 0.1 µM peptide) | cAMP, x-fold of forskolin (mean), NPR-1 (NPR-1; 10 µM peptide) | IP accumulation, x-fold of basal (mean), Y5R (Y5R; 0.1 µM peptide) | IP accumulation, x-fold of basal (mean), Y5R (Y5R; 10 µM peptide) | solubility of crude peptide [1] | further results |
| --- | --- | --- | --- | --- | --- | --- |
| APLEPVYPGDNATPEQMAQYAADLRRYINMLTRPRY-NH2 [PP, human pancreatic polypeptide, reference compound] | 1.21 x-fold of forskolin | 1.49 x-fold of forskolin | 16.39 x-fold of basal | 17.90 x-fold of basal |  |  |
| TPDINPAWYASRGIRPVGRF-NH2 [PrRP20, human prolactin-releasing peptide, 20 residues, reference compound] | 1.14 x-fold of forskolin | 1.45 x-fold of forskolin | 1.01 x-fold of basal | 5.90 x-fold of basal |  |  |
| SEVPGVLRF-NH2 [FLP-18-5] |  |  |  |  | partly insoluble | solubility of crude peptide at basic pH [1]: improved solubility at basic pH; Emax (NPR-1; SEM): -0.53 ± 0.2% |
| AGSDPNFLRF-NH2 [FLP-1-2, C. elegans FMRFamide-like peptide, C-terminally amidated, synthesized by SPPS] | 0.98 x-fold of forskolin | 0.89 x-fold of forskolin | 1.33 x-fold of basal | 1.17 x-fold of basal |  |  |
| PrRP31 [reference compound] | 1.30 x-fold of forskolin | 1.41 x-fold of forskolin | 0.70 x-fold of basal | 9.64 x-fold of basal |  |  |
| RGPSGPLRF-NH2 [FLP-15-2] |  |  |  |  | partly insoluble | solubility of crude peptide at basic pH [1]: improved solubility at basic pH; Emax (NPR-1; SEM): -0.92 ± 0.1%; EC50 (NPR-1; SEM): 25.1 nM |
| RGPSGPLAF-NH2 [[R8A]FLP-15-2] |  |  |  |  |  | Gi (Gs) [x-fold of forskolin], NPR-1, mean (NPR-1; 0.1 µM peptide): 0.84 x-fold of forskolin; Gi (Gs) [x-fold of forskolin], NPR-1, mean (NPR-1; 10 µM peptide): 0.85 x-fold of forskolin |
| ASPSFIRF-NH2 [FLP-4-2, C. elegans FMRFamide-like peptide, C-terminally amidated, synthesized by SPPS] | 0.77 x-fold of forskolin | 0.76 x-fold of forskolin | 1.14 x-fold of basal | 1.29 x-fold of basal |  |  |
| GLGPRPLAF-NH2 [[R8A]FLP-21, R8A control peptide of FLP-21, penultimate arginine exchanged for an alanine] |  |  |  |  |  | Gi (Gs) [x-fold of forskolin], NPR-1, mean (NPR-1; 0.1 µM peptide): 0.90 x-fold of forskolin; Gi (Gs) [x-fold of forskolin], NPR-1, mean (NPR-1; 10 µM peptide): 0.89 x-fold of forskolin |
| APKPKFIRF-NH2 [FLP-5-1, C. elegans FMRFamide-like peptide, C-terminally amidated, synthesized by SPPS] | 0.54 x-fold of forskolin | 0.50 x-fold of forskolin | 0.80 x-fold of basal | 5.88 x-fold of basal |  | cAMP assay Gi, NPR-1 (NPR-1; 0.1 µM peptide + 1 µM forskolin (set to 1.00)): 0.58 x-fold of forskolin; cAMP assay Gi, NPR-1 (NPR-1; 10 µM peptide + 1 µM forskolin (set to 1.00)): 0.53 x-fold of forskolin |
| GLGPRPLRF-NH2 [FLP-21] |  |  |  |  | partly insoluble | solubility of crude peptide at basic pH [1]: improved solubility at basic pH; EC50 (NPR-1): 0.97 nM; Emax (NPR-1; SEM): -0.97 ± 0.15% |

Continued, in another order:

| cAMP, x-fold of forskolin (mean), NPR-1 (NPR-1; 0.1 µM peptide) | cAMP, x-fold of forskolin (mean), NPR-1 (NPR-1; 10 µM peptide) | IP accumulation, x-fold of basal (mean), Y5R (Y5R; 0.1 µM peptide) | IP accumulation, x-fold of basal (mean), Y5R (Y5R; 10 µM peptide) | Substance | solubility of crude peptide [1] | further results |
| --- | --- | --- | --- | --- | --- | --- |
| 0.91 x-fold of forskolin | 0.71 x-fold of forskolin |  |  | EASAFGDIIGELKGKGLGGRMRF-NH2 [FLP-27, NPY-like C. elegans FLP with C-terminal RxRF/Ya signature] | partly insoluble |  |
| 0.72 x-fold of forskolin | 0.82 x-fold of forskolin |  |  | APLEGFEDMSGFLRTIDGIQKPRF-NH2 [FLP-33, NPY-like C. elegans FLP with C-terminal RxRF/Ya signature] | partly insoluble |  |
| 1.17 x-fold of forskolin | 0.84 x-fold of forskolin | 0.87 x-fold of basal | 3.57 x-fold of basal | TSGPLGNLAEELNGYSRKKGGFSFRF-NH2 [QRFP26, human pyroglutamylated RFamide peptide, 26 residues, reference compound] |  |  |
